Here are results for two molecules from paper PMC3121873, “Insertion of an Esterase Gene into a Specific Locust Pathogen (Metarhizium acridum) Enables It to Infect Caterpillars” (PLoS Pathogens, 2011).

The target of the assay is T1, MEST1 (Metarhizium robertsii, UniProt E9ETD4).
T1 construct: gene MAA_03283; full-length cDNA (395 aa, 42244 Da, no signal peptide) in pET28a, His6-tagged, 47 kDa band; E. coli Rosetta (DE3) crude extract, not purified
Kind of assay: spectrophotometric p-nitrophenol release. It counts as biochemical. Particulars: 50 mM potassium phosphate pH 8, 37 °C; crude E. coli extract versus empty-vector extract.

T1 sequence (E9ETD4 entry or part of it): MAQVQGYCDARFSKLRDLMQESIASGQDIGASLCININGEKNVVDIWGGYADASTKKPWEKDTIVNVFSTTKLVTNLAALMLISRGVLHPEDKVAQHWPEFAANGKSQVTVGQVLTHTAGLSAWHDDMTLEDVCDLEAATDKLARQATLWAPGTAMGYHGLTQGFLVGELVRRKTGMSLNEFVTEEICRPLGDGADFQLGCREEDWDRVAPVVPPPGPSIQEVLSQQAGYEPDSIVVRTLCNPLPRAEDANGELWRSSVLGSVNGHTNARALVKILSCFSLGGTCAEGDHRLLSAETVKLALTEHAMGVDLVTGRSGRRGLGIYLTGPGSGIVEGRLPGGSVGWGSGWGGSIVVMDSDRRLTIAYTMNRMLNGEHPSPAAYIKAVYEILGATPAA

With `CCCC(=O)Oc1ccc([N+](=O)[O-])cc1` [p-NP butyrate], the spectrophotometric p-nitrophenol release result was “highest activity against p-NP propionate (C3), p-NP butyrate (C4) and p-NP caproate (C6)”.
Consider `CCC(=O)Oc1ccc([N+](=O)[O-])cc1` [p-NP propionate], for which the spectrophotometric p-nitrophenol release entry is “highest activity against p-NP propionate (C3), p-NP butyrate (C4) and p-NP caproate (C6)”.
